B1: VTN: vitronectin, first coating matrix that supports cell adhesion (protein, UniProt P04004 20-478, looked up)
Vitronectin: DQESCKGRCTEGFNVDKKCQCDELCSYYQSCCTDYTAECKPQVTRGDVFTMPEDEYTVYDDGEEKNNATVHEQVGGPSLTSDLQAQSKGNPEQTPVLKPEEEAPAPEVGASKPEGIDSRPETLHPGRPQPPAEEELCSGKPFDAFTDLKNGSLFAFRGQYCYELDEKAVRPGYPKLIRDVWGIEGPIDAAFTRINCQGKTYLFKGSQYWRFEDGVLDPDYPRNISDGFDGIPDNVDAALALPAHSYSGRERVYFFKGKQYWEYQFQHQPSQEECEGSSLSAVFEHFAMMQRDSWEDIFELLFWGRTSAGTRQPQFISRDWHGVPGQVDAAMAGRIYISGMAPRPSLAKKQRFRHRNRKGYRSQRGHSRGRNQNSRRPSRATWLSLFSSEESNLGANNYDDYRMDWLVPATCEPIQSVFFFSGDKYYRVNLRTRRVDTVDPPYPRSIAQYWLGCPAPGHL

Columns and labels:
Assay type in all cases: cell-based, human
imDAPs [1] = assay: imDAP expansion, cell morphology (bright-field); settings: for attachment and morphology of imDAPs on coated surface (FIG. 4A): coating 1 μg/cm^2 each, day 4, Example 8 expansion medium
Description: imDAPs were produced according to the method described in CN201910169525.0. The imDAPs (P0) were seeded on VTN-coated plates (1 μg/cm^2) at a density of 1×10^5 cells/cm^2 in the expansion medium (50% DMEM/F12, 50% Neurobasal™ medium, 1% (v/v) Glutamax, 2% (v/v) B27 (50×), 0.2 μM LDN193189, 3 μM CHIR99021, 100 ng/mL FGF8b) in the absence or presence of 5 μM Blebbistatin. In case where Blebbistatin is present, Blebbistatin was either removed 24 hrs after plating or present throughout the culture period. The medium was changed every day for 5 days.
imDAPs were produced according to the method described in CN201910169525.0. The imDAPs (P0) were seeded on VTN-coated plates (1 μg/cm^2) at a density of 1×10^5 cells/cm^2 in the expansion medium (50% DMEM/F12, 50% Neurobasal™ medium, 1% (v/v) Glutamax, 2% (v/v) B27 (50×), 3 μM CHIR99021, 100 ng/mL FGF8b, 5 μM Blebbistatin) in the absence or presence of 0.2 μM LDN193189. The medium was changed every day for 5 days.
(§1) imDAPs were produced according to the method described in CN201910169525.0. The imDAPs (P0) were seeded on DLL4-coated (1 μg/cm^2), VTN-coated (1 μg/cm^2) and DLL4/VTN-coated (1 μg/cm^2 for each) plates at a low density of 1×10^4 cells/cm^2 respectively, and cultured in the expansion medium in the absence or presence of 5 μM SB431542. Medium was replaced every 3rd day until reaching 100% confluence (6 days) for cell collection. The typical cell morphology on day 4 was recorded (FIG. 4A). The cell number of each group was counted by Vi-cell cytometer (FIG. 4B). The cells of each group were stained with Foxa2-PE antibody (BD, #561589), the percentage of Foxa2+ imDAPs were analyzed by flow cytometry (FIG. 4C). The expansion medium used in this example contained the following components: 50% DMEM/F12, 50% Neurobasal™ medium, 1% (v/v) Glutamax, 1% (v/v) B27, 50 μg/ml ascorbic acid, 0.2 μM LDN193189, 100 ng/ml FGF8b, 3 μM CHIR99021 and 10 µM Y27632.
(§2) imDAPs were produced according to the method described in CN201910169525.0. The imDAPs (P0) were seeded on DLL4/VTN-coated (1 μg/cm^2 for each) plates at a low density of 1×10^4 cells/cm^2, and cultured in the expansion medium (EM1, EM2, EM3, EM4). Medium was replaced every 3rd day until reaching 100% confluence (6 days) for cell collection. EM1 used in Example 9 contained the following components: 50% DMEM/F12, 50% Neurobasal™ medium, 1% (v/v) Glutamax, 1% (v/v) B27 (50×), 50 μg/ml ascorbic acid, 3 μM CHIR99021, 5 μM SB431542 and 10 μM Y27632. EM2 used in Example 9 contained the following components: 50% DMEM/F12, 50% Neurobasal™ medium, 1% (v/v) Glutamax, 1% (v/v) B27 (50×), 50 μg/ml ascorbic acid, 0.2 μM LDN193189, 3 μM CHIR99021, 5 μM SB431542 and 10 μM Y27632. EM3 used in Example 9 contained the following components: 50% DMEM/F12, 50% Neurobasal™ medium, 1% (v/v) Glutamax, 1% (v/v) B27 (50×), 50 μg/mL ascorbic acid, 0.2 μM LDN193189, 100 ng/ml FGF8b, 3 μM CHIR99021, 5 μM SB431542 and 10 μM Y27632. EM4 used in Example 9 contained the following components: 50% DMEM/F12, 50% Neurobasal™ medium, 1% (v/v) Glutamax, 1% (v/v) B27 (50×), 50 μg/ml ascorbic acid, 0.2 μM LDN193189, 10 ng/ml FGF2, 3 μM CHIR99021, 5 μM SB431542 and 10 μM Y27632.

imDAPs [2] = assay: imDAP expansion efficiency (cell number, expansion fold, Population Doubling Time); settings: DLL4/VTN-coated; for imDAP expansion, overall conclusion of Example 9: added to CHIR99021/SB431542/Y27632 medium
Description: imDAPs were produced according to the method described in CN201910169525.0. The imDAPs (P0) were seeded on VTN-coated plates (1 μg/cm^2) at a density of 1×10^5cells/cm^2 in the expansion medium (50% DMEM/F12, 50% Neurobasal™ medium, 1% (v/v) Glutamax, 2% (v/v) B27 (50×), 0.2 μM LDN193189, 3 μM CHIR99021, 100 ng/mL FGF8b, 5 μM Blebbistatin). The medium was changed every day. When imDAPs reach 100% confluence (4-5 days), cells were passaged enzymatically with 1× TrypLE, centrifuged at 250 g for 5 minutes, counted and replaced on new VTN-coated plates (1 μg/cm^2) at a density of 1×10^5 cells/cm^2 in the expansion medium. imDAPs were continuously expanded for 6 passages. At each passage, imDAPs were harvested at an expansion fold 5˜10 (over the initial number of imDAPs plated).
as §1, with “The expansion medium used in this example contained the following components: 50% DMEM/F12, 50% Neurobasal™ medium, 1% (v/v) Glutamax, 1% (v/v) B27, 50 μg/ml ascorbic acid, 0.2 μM LDN193189, 100 ng/ml FGF8b, 3 μM CHIR99021 and 10 µM Y27632.” left out
imDAPs were produced according to the method described in CN201910169525.0. […] Medium was replaced every 3rd day until reaching 100% confluence (6 days) for cell passaging. imDAPs were passaged enzymatically with 1× TrypLE, centrifuged at 250 g for 5 minutes, counted and plated on new DLL4/VTN-coated plates at a density of 1×10^4 cells/cm^2 in the expansion medium. imDAPs were expanded and maintained in the expansion medium for 6 passages. […]

imDAPs [3] = assay: Flow cytometry analysis of FOXA2 expression in expanded imDAPs; settings: for FOXA2 expression, FACS (FIG. 4C): VTN or DLL4+VTN coating, with or without 5 μM SB431542, 6 days
Description: 1. Individualize and collect cells by either Accutase or TrypLE treatment.
2. Wash cells with 1 ml PBS and pellet cells at 250×g for 15 sec.
3. Remove supernatant, add ˜200 μl of 4% PFA, mix and fix for 10 min at RT.
4. Pellet cells at 350×g for 5 min.
5. Wash cells by 1 ml of FACS buffer and pellet cells at 350×g for 5 min.
6. Remove supernatant, add 200 μl/tube of FACS buffer/0.1% TritonX, mix for 10 min at RT.
7. Wash cells by 1 ml of FACS buffer and pellet cells at 350×g for 5 min.
8. Remove supernatant, add 200 μl/tube of primary antibody diluted in FACS buffer, mix gently, and incubate for 30 min at RT.
9. Wash cells by 1 ml of FACS buffer and pellet cells at 350×g for 5 min.
10. Remove supernatant, and add 200 μl of secondary antibody diluted in FACS buffer, mix gently, and incubate for 30 min at RT.
11. Wash cells by 1 ml of FACS buffer and pellet cells at 300×g for 5 min.
12. Remove supernatant, add 200 μl of FACS buffer, and run samples on the flow cytometry.
imDAPs were produced according to the method described in CN201910169525.0. The imDAPs (P0) were seeded on VTN-coated plates (1 μg/cm^2) at a low density of 1×10^4 cells/cm^2, and cultured in the expansion medium (50% DMEM/F12, 50% Neurobasal™ medium, 1% (v/v) Glutamax, 2% (v/v) B27 (50×), 0.2 μM LDN193189, 3 μM CHIR99021, 100 ng/mL FGF8b) with either 5 μM Blebbistatin or 10 μM Y27632. Medium was replaced every 3rd day. At Day 6, cells were collected for FACS analysis.
as §1
as §2, with “EM4 used in Example 9 contained the following components: 50% DMEM/F12, 50% Neurobasal™ medium, 1% (v/v) Glutamax, 1% (v/v) B27 (50×), 50 μg/ml ascorbic acid, 0.2 μM LDN193189, 10 ng/ml FGF2, 3 μM CHIR99021, 5 μM SB431542 and 10 μM Y27632.” left out

Row | Molecule | imDAP expansion, overall conclusion of Example 9 (imDAPs [2]) | FOXA2 expression, FACS (FIG. 4C) (imDAPs [3]) | attachment and morphology of imDAPs on coated surface (FIG. 4A) (imDAPs [1]) | further results
1 | Cc1ccc2c(c1)C(=O)C1(O)CCN(c3ccccc3)C1=N2 (centres unmarked) [Blebbistatin] | – | – | – | imDAP expansion (cell morphology, FIG. 1A) (imDAPs [1]; 5 μM Blebbistatin throughout culture vs absent or removed 24 hrs after plating, VTN-coated plates, 5 days, P0 imDAPs): supported better imDAP expansion
2 | c1ccc2c(-c3cnn4cc(-c5ccc(N6CCNCC6)cc5)cnc34)ccnc2c1 [LDN193189] | had no additional effects on imDAP expansion | – | – | cell number during expansion (FIG. 5B) (imDAPs [2]; adding 0.2 μM LDN193189 and/or 100 ng/ml FGF8b to CHIR99021/SB431542/Y27632 medium, 6 days): had no additional effect on increasing the cell number; expression of FOXA2 for imDAPs, flow cytometry (FIG. 5C) (imDAPs [3]; addition of 100 ng/ml FGF8b and/or 0.2 μM LDN193189, DLL4/VTN-coated, P1 cells): slightly decreased the expression of FOXA2; cell morphology of expanded imDAPs (FIG. 1B) (imDAPs [1]; absence vs presence of 0.2 μM LDN193189, VTN-coated, 5 days): imDAPs cultured without LDN193189 showed more flattened morphology
3 | NC(=O)c1ccc(-c2nc(-c3ccc4c(c3)OCO4)c(-c3ccccn3)[nH]2)cc1 [SB431542] | – | could improve FOXA2 expression | – | –
4 | DLL4: Notch agonist Delta-Like 4, used as coating matrix | – | could improve FOXA2 expression | could not support the attachment of imDAPs | –
5 | FGF2: fibroblast growth factor | had no additional effects on imDAP expansion | – | – | cell morphology on day 5 (FIG. 5A) (imDAPs [1]; 10 ng/ml FGF2 (with 0.2 μM LDN193189) in expansion medium EM4, DLL4/VTN-coated): some obvious heterogeneous cells were observed
6 | B1 | – | – | flattened morphology | –

Source: patent US20240327787A1, “CULTURE MEDIUM, COATING MATRIX AND METHOD FOR EXPANDING MIDBRAIN DOPAMINERGIC PROGENITOR CELLS” (NUWACELL BIOTECHNOLOGIES CO., LTD., priority 2022, published 2024)
